Source: patent EP4559916A1, “PHARMACEUTICALLY ACCEPTABLE SALT AND POLYMORPH OF SUBSTITUTED PYRAZOLO[1,5-A]PYRIMIDIN-7-AMINE DERIVATIVE AND USE THEREOF” (Shanghai Haiyan Pharmaceutical Technology Co., Ltd., priority 2022, dated 2024)
Values belong to the compound of their own block, whether it stands above or below them.

Columns and labels:
[1] = test system: MV4 -11 acute myeloid leukemia; test: In vivo pharmacodynamic experiment, MV4-11 subcutaneous xenograft; parameters: species or system BALB/c nude mice; details: Oral, Once daily
Experimental: In vivo pharmacodynamic experiments were performed on BALB/c nude mice subcutaneously implanted with MV4 -11 acute myeloid leukemia […] xenograft (CDX) based on human tumor cell lines.
Protocol: BALB/c nude mice, female, 6-10 weeks old, weighing approximately 20-23 grams, were maintained in a special pathogen-free environment and in individual ventilated cages (5 mice per cage, 2 cages of 10). All cages, bedding and water were disinfected prior to use. All animals had free access to standard certified commercial laboratory diets. […] Each mouse was implanted with tumor cells subcutaneously in the right flank (1×10^7 0.1 ml+Matrigel 0.1 ml) for tumor growth. When the average tumor volume reached about 165 cubic mm, randomization was performed according to body weight and tumor volume, and administration was started. The test compound was administered orally by gavage daily. Antitumor efficacy was determined by dividing the average tumor increase volume of animals treated with the compound by the average tumor increase volume of untreated animals.
Tumor volume was measured twice weekly with a two-dimensional caliper, and volumes were measured in cubic millimeters. Tumor volume TV=0.5a×b^2. Wherein, a is the long diameter of the tumor and b is the short diameter of the tumor.
T/C(%) is the percentage of the relative tumor volume (RTV) between the treatment group and the control group at a certain time point. The calculation Formula is as follows: T/C% = TRTV/CRTV×100% (TRTV: mean RTV of treatment group; CRTV: mean RTV of vehicle control group; RTV=Vt/V0, V0 is tumor volume of the animal at grouping, Vt is tumor volume of the animal after treatment). mpk is mg/kg body weight.
Body weight change (%) of tumor-bearing animals was calculated as follows: (body weight at measurement - body weight at grouping)/body weight at grouping × 100.

[2] = In vivo pharmacokinetic test in mice; details: male ICR mice, gavage administration 10 mg/kg
Experimental: Test animals: healthy adult male ICR mice (weighing 30-40 g, 12 mice, intravenous injection group mice drinking water and diet ad libitum, gavage group fasting overnight, drinking water and diet ad libitum 4 h after administration), provided by Beijing Vital River Laboratory Animal Co. LTD;
Administration method and dosage: ICR mice were administered via caudal vein administration (2 mg/kg, 5% DMSO, pH 4.5 20% Captisol) and gavage administration (10 mg/kg, 5% DMSO, pH 4.5 20% Captisol).
Blood sampling: Animals meeting the experimental requirements were selected prior to administrating, weighed and labeled. Mice were bound prior to blood sampling, and each administrated mice was bled at a predetermined time point (caudal vein administration: blood samples were collected at 0.083 h, 0.25 h, 0.5 h, 1 h, 2 h, 4 h, 6 h, 7.5 h and 24 h after administration, totally 9 time points; gavage administration: blood samples were collected at 0.083 h, 0.25 h, 0.5 h, 1 h, 2 h, 4 h, 6 h, 7.5 h and 24 h after administration, totally 9 time points), and about 100 µL blood samples were collected through the orbit. The blood was transferred to a 1.5 mL test tube pre-added with K2EDTA, centrifuged for 4 min (8000 rpm, 4°C), and the plasma was removed. The whole process was completed within 15 min after blood collection. All samples were stored in a refrigerator at -20°C until sample analysis. LC/MS/MS method was used to determine drug concentrations.

[3] = Rough solubility in pH 4.5 and pH 6.8 buffers at room temperature; format: physicochemical
[4] = Stability test: changes in crystal form (XRPD) under high temperature and accelerated conditions; format: physicochemical; details: for changes in crystal form: 60°C (high temperature) and 40°C to 75% RH (accelerated), day 7, day 20, day 30, day 60
Experimental: X-ray powder diffraction (XRPD): in the present disclosure, the above crystalline or amorphous powder X-ray diffraction pattern was obtained by a known method in the art using an ARL Equinox3000 X-ray powder diffraction analyzer.
(§1) The changes in crystal form were detected at day 7, day 20, day 30, and day 60, respectively. […] (2) About 40 mg of phosphate crystal form I (prepared with reference to Example 1 of the present application) was weighed into a glass vial , and ethanol (1 mL) was added thereto, the glass vial was sealed and shaken at 50°C and 150 r/min for seven days, then centrifuged to collect the solid and the solvent was evaporated. […] Samples were taken and the related substances were determined. […]

[5] = Hygroscopicity test according to Chinese Pharmacopoeia 2020, volume IV, 9103; format: physicochemical
Description: (§2) Chinese Pharmacopoeia 2020, volume IV, 9103 Guidelines for Hygroscopicity Test of Drugs specifies the definition of hygroscopicity characteristics and hygroscopicity weight gain: (1) deliquescence: absorbing sufficient water to form a liquid; (2) extremely hygroscopicity: hygroscopicity weight gain of not less than 15%; (3) hygroscopicity: hygroscopicity weight gain of less than 15% but not less than 2%; (4) slightly hygroscopicity: hygroscopicity weight gain of less than 2% but not less than 0.2%; (5) no or almost no hygroscopicity: moisture gain is less than 0.2%.

[6] = Chemical stability: related substances after 80°C for one week with water added; format: physicochemical; details: for Phosphate content (80°C, 7 d): 25 mg sample with 5 mg water, oven at 80°C
[7] = Dynamic vapor sorption (DVS) measurement; format: physicochemical; details: for weight gain due to moisture absorption: DVS, 80% RH, 25°C; for hygroscopicity: from DVS weight gain at 80% RH
Experimental: Dynamic vapor sorption (DVS) curve: a dynamic vapor sorption curve was collected on a DVS Intrinsic of SMS (Surface Measurement Systems). The relative humidity at 25°C was calibrated using the deliquescent points of LiCl, Mg(NO3)2 and KCl.
as §2

[8] = Solubility in 0.1 mol/L hydrochloric acid and pH 6.8 phosphate buffer, 24 h at 37°C; format: physicochemical; details: for solubility: 1440 min
[9] = Crystal form conversion: suspension shaking in ethanol; format: physicochemical; details: ethanol (1 mL), sealed, shaken at 50°C and 150 r/min for seven days
Experimental: as §1

CDK9/CycT = target: T1, CDK9/CycT (Homo sapiens, UniProt P50750); test: LANCE Ultra kinase activity inhibition test, CDK9; format: biochemical; details: ATP 10 µM
T1 construct: purchased Carna Bioscience 04-110
Description: In the following LANCE Ultra test method, kinase reagents were purchased from Carna Bioscience, reaction substrates and detection reagents were purchased from Perkin Elmer, and the remaining reagents were purchased from Thermo scientific.
The LANCE Ultra method was used to determine the inhibitory effect of the test substance on the kinase activity of CDK1/CycB (Carna bioscience, #04-102), CDK2/ CycA (Carna bioscience, #04-103), CDK9/CycT (Carna bioscience, #04-110).
Each kinase in the test included three test groups: background group (Blank), non-inhibition group (PC) and compound test group (Test). […]
After the addition of the test solution, it was placed on a shaker and incubated at room temperature for 1 h in the dark. […] The 665 nm/615 nm values (hereinafter referred to as the Ratio value) were calculated for all groups, and the inhibition rate was calculated based on the Ratio value of each group; 2. […] XLFIT 5.0 software (IDBS, UK) was used for fitting, with logarithmic values of compound concentrations as the X axis and inhibition rates as the Y axis, and IC50 values of compounds were calculated using a four-parameter model.

physchem = details: water
[10] = listed as phosphate crystal form II of the compound of Formula (I)
[11] = listed as phosphate crystal form I of the compound of Formula (I)

T1 sequence (P50750 whole entry): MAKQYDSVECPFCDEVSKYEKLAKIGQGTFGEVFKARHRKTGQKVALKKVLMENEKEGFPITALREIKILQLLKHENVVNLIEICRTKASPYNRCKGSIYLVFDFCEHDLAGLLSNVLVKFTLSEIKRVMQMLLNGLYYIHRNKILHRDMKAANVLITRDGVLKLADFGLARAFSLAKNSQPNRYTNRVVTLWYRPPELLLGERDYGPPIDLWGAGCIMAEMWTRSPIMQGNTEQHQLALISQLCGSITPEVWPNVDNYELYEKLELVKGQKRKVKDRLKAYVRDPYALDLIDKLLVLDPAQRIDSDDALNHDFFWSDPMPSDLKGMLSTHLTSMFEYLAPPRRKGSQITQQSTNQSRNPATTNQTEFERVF
T1 sequence (O60563 whole entry partner): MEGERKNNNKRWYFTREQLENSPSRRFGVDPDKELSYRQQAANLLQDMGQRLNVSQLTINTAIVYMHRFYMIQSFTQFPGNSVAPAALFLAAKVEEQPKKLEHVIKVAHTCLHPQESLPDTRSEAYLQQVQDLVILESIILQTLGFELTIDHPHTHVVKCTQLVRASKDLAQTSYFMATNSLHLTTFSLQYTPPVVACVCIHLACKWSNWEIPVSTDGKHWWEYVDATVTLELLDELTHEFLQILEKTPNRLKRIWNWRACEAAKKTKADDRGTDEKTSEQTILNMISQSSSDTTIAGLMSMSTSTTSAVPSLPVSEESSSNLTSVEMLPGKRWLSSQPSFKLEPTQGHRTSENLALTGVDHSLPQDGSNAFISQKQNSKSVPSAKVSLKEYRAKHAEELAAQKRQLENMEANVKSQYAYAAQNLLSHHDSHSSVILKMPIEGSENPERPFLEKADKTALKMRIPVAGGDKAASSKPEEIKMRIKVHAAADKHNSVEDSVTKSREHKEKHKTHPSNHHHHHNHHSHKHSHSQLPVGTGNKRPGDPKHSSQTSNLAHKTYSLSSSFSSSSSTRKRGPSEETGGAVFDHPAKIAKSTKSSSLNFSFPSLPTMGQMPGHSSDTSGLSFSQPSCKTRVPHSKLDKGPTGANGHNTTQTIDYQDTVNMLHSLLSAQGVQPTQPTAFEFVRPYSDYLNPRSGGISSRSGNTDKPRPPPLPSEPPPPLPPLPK

- Area under the curve for oral administration AUC0-t [2]: 1191 ng·h/mL
- Maximum oral plasma concentration Cmax [2]: 433 ng/mL
SMILES: CCC(CC)c1cc(N[C@H]2CC[C@H](N)C2)n2nccc2n1 [Compound D, reference compound]
- Mean tumor weight ([1]; 12.5 mpk): 0.35 g
- T/C ([1]; 12.5 mpk): 45.04%
- Mean tumor weight ([1]; 25 mpk): 0.02 g
- T/C ([1]; 25 mpk): 2.04%

- Solubility in pH 4.5 buffer ([3]; rough solubility, pH 4.5 buffer (acetic acid-sodium acetate system)): ≤43.3 mg/mL
- Solubility in pH 6.8 buffer ([3]; rough solubility, pH 6.8 buffer (sodium dihydrogen phosphate-sodium hydroxide system)): ≤21.8 mg/mL
- changes in crystal form [4]: no obvious changes
- change of XRPD pattern ([4]; accelerated conditions (40°C-75% RH), 7 days and 2 months (60 days), FIG. 15): no obvious change
- change of XRPD pattern ([4]; high temperature conditions (60°C), 7 days and 2 months (60 days)): no obvious change
SMILES: C[C@H](c1cc(N[C@H]2CC[C@H](N)C2)n2nccc2n1)C1CCC1 [L-tartrate crystal form I]

- hygroscopicity [5]: slight hygroscopicity
SMILES: C[C@H](c1cc(N[C@H]2CC[C@H](N)C2)n2nccc2n1)C1CCC1 [L-tartrate]

- Phosphate content (0 d) [6]: 99.64
- Phosphate content (80°C, 7 d) [6]: 98.73
- weight gain due to moisture absorption [7]: 0.45%
- weight gain due to moisture absorption [7, 10]: 0.45%
- hygroscopicity [7]: slight hygroscopicity
- hygroscopicity [7, 10]: slight hygroscopicity
- changes in crystal form [4]: no obvious changes
- solubility ([8]; 0.1N HCl): 39.14 mg/mL
- solubility ([8]; pH 6.8 phosphate buffer): 33.63 mg/mL
SMILES: C[C@H](c1cc(N[C@H]2CC[C@H](N)C2)n2nccc2n1)C1CCC1 [Phosphate crystal form II]

- Phosphate content (0 d) [6]: 99.64
- Phosphate content (80°C, 7 d) [6]: 98.66
- weight gain due to moisture absorption [7, 11]: 9%
- solubility ([3]; acetate buffer, pH 4.5, rough solubility, pH 4.5 buffer (acetic acid-sodium acetate system), read-out: Solubility in pH 4.5 buffer): ≤ 33 mg/mL
- solubility ([3]; phosphate buffer, pH 6.8, rough solubility, pH 6.8 buffer (sodium dihydrogen phosphate-sodium hydroxide system), read-out: Solubility in pH 6.8 buffer): ≤ 24.5 mg/mL
- changes in crystal form [4]: no obvious changes
- change of XRPD pattern ([4]; high temperature conditions, 7 days and 30 days, Figure 16): no obvious change
- crystal form of the obtained solid (XRPD) [9]: phosphate crystal form II
- solubility at 24 h ([8]; 0.1n hcl): 22.5 mg/mL
- solubility at 24 h ([8]; phosphate buffer, pH 6.8, pH 6.8 phosphate buffer): 22.5 mg/mL
SMILES: C[C@H](c1cc(N[C@H]2CC[C@H](N)C2)n2nccc2n1)C1CCC1 [Phosphate crystal form I]
- hygroscopicity [7, 11]: hygroscopicity (hygroscopicity weight gain of less than 15% but not less than 2%)

- IC50 (CDK9/CycT): 0.012 µM
- AUC(0-t) ([2]; mouse, plasma, po, read-out: Area under the curve for oral administration AUC0-t): 2960 ng·h/mL
- Cmax ([2]; mouse, plasma, po, read-out: Maximum oral plasma concentration Cmax): 379 ng/mL
SMILES: C[C@H](c1cc(N[C@H]2CC[C@H](N)C2)n2nccc2n1)C1CCC1 [The compound of Formula (I), (1S,3S)-N1-(5-((S)-1-cyclobutylethyl)pyrazolo[1,5-a]pyrimidin-7-yl)cyclopentan-1,3-diamine]
- Mean tumor weight ([1]; 12.5 mpk): 0.17 g
- T/C ([1]; 12.5 mpk): 21.50%
- Mean tumor weight ([1]; 25 mpk): 0.01 g
- T/C ([1]; 25 mpk): 1.40%

- solubility (physchem): ≤ 26.6 mg/mL
SMILES: C[C@H](c1cc(N[C@H]2CC[C@H](N)C2)n2nccc2n1)C1CCC1 [phosphate]
